Assay: gradient 5% acetonitrile 3 min, to 50% in 2 min, to 85% in 15 min, held 3 min, 100 µL/min
Conditions: column: Zorbax Extend-C18 2.1 x 50 mm; eluents: water / acetonitrile, 0.1% formic acid
Summary of the method: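 Pure standards were run in mixtures of ~100 molecules by HPLC coupled to a quadrupole time-of-flight mass spectrometer. The column was a Zorbax Extend-C18 (2.1 × 50 mm, 1.8 μm) at 100 μL/min, with water and acetonitrile each containing 0.1% formic acid, in positive and negative ionization mode. Dead and dwell volumes were 40 μL and 900 μL. Retention time was taken from computationally picked adduct peaks, each manually inspected, with data collected over 3 months.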

Compound	RP-LC retention time [s]
CCn1c(=O)sc2cc(S(=O)(=O)N3CCC(C(=O)Nc4cc(C)ccc4OC)CC3)ccc21	978
Cc1ncsc1CN1CCCC(c2nncn2-c2ccccc2)C1 (configuration not stated)	496
CCc1nn2c(CNC(=O)c3ccc(C)c(F)c3)c(-c3ccccc3)nc2s1	985
CCOC(=O)CNC(=O)N1CCc2c(c(C(=O)N3CCCC3)nn2C)C1	637
COc1cccc(NC(=O)C2CCN(c3cc(N4CCCCC4)ncn3)CC2)c1	708
CN(C)C(=O)C1CN(C(=O)c2ccc(Br)cc2)CC12CCOCC2 (configuration not stated)	631
Cc1ccccc1CNC(=O)C1(C)CCCN(C(=O)Nc2ccc(Br)cc2F)C1 (configuration not stated)	869
O=C1CCCCC(Cc2ccccc2)(C(=O)NCCc2c[nH]c3ccccc23)N1 (configuration not stated)	791
CCC(C)NC(=O)C1CCN(Cc2cn(C)c3ccc(Cl)cc23)CC1 (configuration not stated)	673
O=C1CCc2cc(S(=O)(=O)N3CCCC3C(=O)N3CCN(c4ccccc4)CC3)ccc2N1 (configuration not stated)	713
CCN1C(=O)C2(CCN(C(=O)NCCC(C)C)CC2)c2ccccc21	854
CC(C)CN(Cc1cccnc1)C1CN(C(=O)NCc2ccccc2)C1	627
CCCCNC(=O)Cc1nnc(-c2ccc(OC)cc2)o1	736
CC(C)CCNS(=O)(=O)c1ccc(-c2nc(C(C)C)cs2)s1	1260
COCCNc1c(-c2ccccc2)nc2sc(C(=O)NC(C)C)c(C)n12	749
CCc1ccc2[nH]c3c(c(=O)c2c1)CN(CC(=O)NCc1ccccc1Cl)CC3	633
CCOc1ccc(-c2[nH]nc3nc(-c4cccc(F)c4)cc(C(=O)O)c23)cc1	843
O=C(Cc1c(Sc2ccccc2)[nH]c2ccccc12)NCCN1CCOCC1	654
CCn1ccc(C(=O)NC)n1	566
CCCCN(CC)CCNC(=O)C1CCC(=O)N(c2ccc(OC)cc2)C1c1ccc(F)cc1 (configuration not stated)	633
Cc1cc(NC(=O)c2nc(C(C)C)oc2C)ccc1F	1140
Cn1cc(C(CNC(=O)Nc2ccccc2)c2cccnc2)c2ccccc21 (configuration not stated)	680
CCn1nnc2c(Nc3cccc(C(C)=O)c3)ncnc21	686
Cc1cnc(C2CC2)n1CCNS(=O)(=O)Cc1ccccc1F	619

Compound	RP-LC retention time [s]
O=C(C(=O)N1CCN(c2ccccn2)CC1)c1ccc[nH]1	556
CCOc1ccc(S(=O)(=O)N2CCC(C(=O)NCCCOC)CC2)cc1C	789
O=c1cccnn1CCNS(=O)(=O)c1ccc(OC(F)(F)F)cc1	711
COCCN1C(=O)CCc2cc(NC(=O)c3ccco3)ccc21	654
Cc1[nH]c(C)c(S(=O)(=O)N2CCC(C(=O)N(C)C3CCCCC3)CC2)c1C(=O)N1CCCCC1	762
Cc1csc(-n2nc(C)c(CC(=O)Nc3ccccc3Cl)c2C)n1	1010
Cc1ccc(Cn2c(=O)n(CCNC(=O)c3ccc(C)s3)c3ncccc32)cc1	840
O=C(NCCc1ccc(Cl)cc1)c1nc(Cn2c(=O)oc3ccccc32)no1	969
CN1C(=O)[C@H]2CN(Cc3ccccc3C#N)C[C@H]2C1=O	650
O=C(Cn1ccnc1-c1ccnc(N2CCCC2)c1)NC1CCCCC1	595
Cc1ccc2ncn(C3CCN(C(=O)Nc4ccccc4)CC3)c(=O)c2c1	751
Cc1cc(C)c2c(N3CCSCC3)nc(C(=O)NCCN3CCCC3)nc2n1	600
O=C(NCc1ccc2c(c1)OCO2)C1CCN(C(=O)c2ncn3c2COC(c2ccccc2)C3)CC1 (configuration not stated)	752
CCCN1C(=O)c2c(C(=O)N(C)Cc3ccccc3)ncn2CC1(C)C(=O)NCc1ccc(C)cc1 (configuration not stated)	793
Cc1ccc(Nc2nc(C)cc(N3CCN(C(=O)Nc4ccccc4C)CC3)n2)cc1	704
Cn1c(C2CCN(C(=O)NCCc3ccccc3)CC2)cc(=O)n2nccc12	619
Cc1cccc(Nc2ccc(N3CCN(C(=O)c4cccs4)CC3)nn2)n1	579
O=C(NCCc1ccco1)C1CCCN(c2ccc(=O)n(-c3ccc(F)cc3)n2)C1 (configuration not stated)	773
Cc1ccn2cc(-c3cccc(S(=O)(=O)N4CC(C)CC(C)C4)c3)nc2c1 (configuration not stated)	784
Cc1noc(C)c1C1CCCN1C(=O)Nc1ccccc1C(F)(F)F (configuration not stated)	879
CC(C)c1nnc(-c2cccnc2N2CCN(C(=O)c3ccoc3)CC2)o1	725
CCCNC(C)C(=O)Nc1c(C)csc1C(=O)OC (configuration not stated)	652
CC(C)CN1CCN(C(=O)CN2CCN(Cc3ccc(F)cc3)C2=O)CC1	602

Continued, values first:

RP-LC retention time [s]	Compound
787	CCOc1ccc2ncc(S(=O)(=O)c3ccccc3)c(N3CCN(C)CC3)c2c1
883	COc1ccc(C2C(=O)N(C3CCC(C)CC3)CC(=O)N2Cc2ccco2)cc1OC (configuration not stated)
1010	O=S(=O)(Cc1ccccc1F)N1CC(c2nc(CCOCc3ccccc3)no2)C1
623	CNC(=O)c1nc(C(C)(C)NC(=O)c2ccco2)nc2c1OCO2
878	O=C(c1ccc(Br)o1)N1CCN(c2ccc(=O)n(-c3cccc(Cl)c3)n2)CC1
785	Cc1cc(SCC(=O)Nc2ccc(Cl)cc2C(F)(F)F)nc(-c2cccnc2)n1
757	CCC(=O)N1CCc2cc(C(=O)NCc3ccc(C)o3)ccc21
1110	O=S(=O)(c1ccc(F)cc1F)N1CCc2nc(-c3ccc(F)cc3)ncc2C1
875	O=C(Cc1ccccc1F)N1CCCn2nc(-c3cccs3)cc2C1
865	CCc1noc(-c2ccc(-n3cnc(C(=O)NC4CCCC4)c3)nc2)n1
614	Cc1nc2cccnc2n1CC1CCCN(C(=O)Nc2ccc3c(c2)OCCO3)C1 (configuration not stated)
1160	CC(C)c1csc(-c2csc(S(=O)(=O)NCc3ccc(Cl)cc3)c2)n1
1120	COc1c(C(=O)NCc2ccc(C)o2)sc2cc(Cl)ccc12
794	Cc1ccc(N2CCC(NC(=O)c3ccccc3)C2=O)cc1 (configuration not stated)
572	Cc1cc(N2CCN(C)CC2)nc2ccc(NC(=S)NCCC(C)C)cc12
816	O=C(CSc1ccc(-n2cnc(-c3ccccc3)c2)nn1)Nc1ccc(F)cc1F
1060	COCCn1cc2c3c(cccc31)CN(C(=O)c1ccc(Cl)s1)CC2
757	Cc1cccc(C)c1Nc1c(-c2ccccc2F)nc2cccc(C)n12
883	Cc1cc(C)nc(SCc2cc(=O)c(OC(=O)c3cccc([N+](=O)[O-])c3C)co2)n1
1020	Cc1cccc(NC(=O)Cn2cnc3c(sc4nc(-c5ccccc5)ccc43)c2=O)c1C
606	Cc1cc(NC(=O)c2cnccn2)sn1
876	O=C(NCCc1ccccc1)NC(c1ccccc1)c1nnc(-c2ccccc2)o1 (configuration not stated)
982	Cc1sc(-c2cc(C(F)(F)F)on2)cc1S(=O)(=O)NCc1ccc(N(C)C)cc1

RP-LC retention time [s]	Compound
957	Cc1ccc2[nH]cc(CCNC(=O)c3ccc(Cl)cc3Cl)c2c1
727	COc1ccc(-c2nc(-c3ccc4ncn(C(C)C)c4c3)no2)cc1OC
705	Cc1ccc(Nc2c(-c3cccc(O)c3)nc3ncccn23)cc1C
947	CC(C)n1c(=O)n(CC(=O)N2CCCc3ccccc32)c2cc(S(=O)(=O)N3CCCC3)ccc21
787	O=C(C1CCN(c2nc3ccc(-c4cncnc4)nc3s2)CC1)N1CCCCC1
754	Cc1cc(C)n(-c2nc3cc(Cl)ccc3nc2N2CCN(c3ccccn3)CC2)n1
691	O=C(c1cccs1)N1CCN(c2nnc3ccc(Cl)cn23)CC1
606	O=C(Nc1ccc2c(c1)OCCO2)C1(CCO)CCN(c2ncccn2)C1 (configuration not stated)
651	COc1cccc(CN2CC=C(C(=O)N3CCN(c4ccccc4OC)CC3)CC2)c1
736	COc1ccc(-c2nnc(SCC(=O)Nc3ccc(S(N)(=O)=O)cc3)o2)cc1
883	COc1ccc2[nH]cc(CCNC(=O)c3cc(Cl)ccc3OC)c2c1
764	Cc1noc2ncn(CC(=O)NCCCc3ccccc3)c(=O)c12
762	O=C1Nc2cc(C(=O)N3CCCCC3)ccc2N2CCCCC12 (configuration not stated)
662	Clc1ccc(-c2cn3cccnc3n2)cc1
642	COc1ccc(NC(=O)N2CCN(Cc3nc4ccccc4o3)CC2)cc1
590	CC1CCCN(CCCNC(=O)c2cccc3c2SCCC3=O)C1 (configuration not stated)
682	CCOC(=O)C1=C(C)NC(=O)NC1c1ccc(OCC(=O)N2CCCCC2)cc1 (configuration not stated)
933	COc1ccccc1N=NNc1ccccc1OC
670	COc1ccc(C2CN(S(=O)(=O)c3ccccc3F)CCN2C)cc1 (configuration not stated)
832	O=C(Cn1ccc2sccc2c1=O)Nc1ccc(Br)cc1F
831	CCCN(CC1CCOC1)C(=O)Nc1cccc(SC)c1 (configuration not stated)
694	CC(C)Cn1c(=O)c2cc(C(=O)NCCC3CCN(C(C)C)CC3)nn2c2ccccc21

Reference: the METLIN SMRT retention time set (Domingo-Almenara et al. 2019)
